# Measurements published in US10570077B2, “Substituted (4'-hydroxyphenyl)cyclohexane compounds and uses thereof as selective agonists of the estrogen receptor beta isoform” (Marquette University, priority 2013, dated 2020).
# Values joined by “and” are separate entries in the source; they are usually repeats but may differ in a detail not shown here. Identical values can stand only once.
# Target: T1, ERα (Homo sapiens (Human), UniProt P03372)
# Assay: Cell-based ERα luminescence (luciferase reporter) agonist assay
# Settings: not given
# Excerpt: (§1) ERα and ERβ assay kits for cell-based assays (Indigo Biosciences) allowed for investigation into the functional activity (i.e. agonist and/or antagonist) of the ligands identified to bind based on the initial fluorescence polarization displacement assay. Briefly, the cells contained a luciferase reporter gene that was functionally linked to either the ERα or ERβ-responsive promoter. By quantifying the luciferase expression via luminescence, the change in ER activity could be quantified. […] For the agonist assay, the cells were prepared by warming to 37° C., plated, then the chemicals added. […] The cells were then plated, and the chemicals added. All plates were incubated in a cell culture incubator at 37° C. and 5% CO2 for 22 h. Each assay was performed in duplicate. Luminescence was characterized after removal of the incubating media and introduction of the Detection Substrate using a Molecular Devices SpectraMax M5 microplate reader. Data was fitted using GraphPad Prism and fit to the dose-response (four parameter) equation as follows.
# T1 sequence (P03372 whole entry): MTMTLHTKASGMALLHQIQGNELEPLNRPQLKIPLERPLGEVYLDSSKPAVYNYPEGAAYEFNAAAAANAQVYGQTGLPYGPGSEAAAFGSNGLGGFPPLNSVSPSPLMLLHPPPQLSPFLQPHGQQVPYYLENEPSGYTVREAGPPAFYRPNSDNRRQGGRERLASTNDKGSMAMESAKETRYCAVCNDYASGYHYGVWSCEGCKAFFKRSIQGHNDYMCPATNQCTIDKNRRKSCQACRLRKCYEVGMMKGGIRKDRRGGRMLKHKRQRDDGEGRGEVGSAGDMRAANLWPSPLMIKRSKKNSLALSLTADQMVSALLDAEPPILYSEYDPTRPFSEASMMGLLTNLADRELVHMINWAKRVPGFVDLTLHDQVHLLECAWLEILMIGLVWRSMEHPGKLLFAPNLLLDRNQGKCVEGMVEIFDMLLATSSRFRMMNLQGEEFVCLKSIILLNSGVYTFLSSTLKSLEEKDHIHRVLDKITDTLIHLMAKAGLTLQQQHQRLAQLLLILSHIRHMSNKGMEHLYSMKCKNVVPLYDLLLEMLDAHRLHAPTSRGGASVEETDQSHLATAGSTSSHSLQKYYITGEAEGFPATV
SMILES,ERα agonist activity (qualitative),IC50
"CC1C[C@H](C)C2(CC[C@H]3[C@@H]4CCc5cc(O)ccc5[C@H]4CC[C@@]32C)O1 (some centres unmarked) [Compound 13, 17,23-Epoxy-3-hydroxy-19-norchola-1,3,5(10)-triene]",agonist activity,484 ± 1 nM
"CCCOC(=O)C1CC[C@H]2[C@@H]3CCc4cc(O)ccc4[C@H]3CC[C@]12C (some centres unmarked) [Compound 4, n-Propyl 3-hydroxyestra-1,3,5(10)-triene-17-carboxylate]",–,92 ± 1 nM
"C[C@]12CC[C@@H]3c4ccc(O)cc4CC[C@H]3[C@@H]1CC=C2CO [Compound 2, 3-Hydroxvestra-1,3,5(10),16-tetraene-17-methanol]",agonist activity,–

# Same assay, conditions: normalized; read-out: ERα Normalized Agonist
row,EC50,SMILES
1,10500 ± 200 nM,OCC1CCC[C@@H](c2ccc(O)cc2)CC1 (some centres unmarked) [ISP-163]
2,45000 ± 17000 nM,OCCC1CCCC(c2ccc(O)cc2)CC1 (centres unmarked) [ISP-248]
3,25000 ± 1300 nM,CCC1CCC(c2ccc(O)cc2)CC1 (centres unmarked) [RKP-231 IF]
4,700000 ± 80000 nM,OCC1CCC(c2ccc(O)cc2)CC1 (centres unmarked) [ISP-171]
5,350000 ± 250000 nM,O/N=C1/CCCC(c2ccc(O)cc2)CC1 (centres unmarked) [ISP-166]

# Same assay, conditions: read-out: ERα Agonist
row,EC50,SMILES
1,> 10000 nM,OCC1CCC[C@@H](c2ccc(O)cc2)CC1 (some centres unmarked) [ISP-163]
2,> 10000 nM,OCCC1CCCC(c2ccc(O)cc2)CC1 (centres unmarked) [ISP-248]
3,> 10000 nM,CCC1CCC(c2ccc(O)cc2)CC1 (centres unmarked) [RKP-231 IF]
4,> 10000 nM,OCC1CCC(c2ccc(O)cc2)CC1 (centres unmarked) [ISP-171]
5,> 10000 nM,O/N=C1/CCCC(c2ccc(O)cc2)CC1 (centres unmarked) [ISP-166]

# Target: T2, ERβ (Homo sapiens (Human), UniProt Q92731)
# T2 sequence (Q92731 whole entry): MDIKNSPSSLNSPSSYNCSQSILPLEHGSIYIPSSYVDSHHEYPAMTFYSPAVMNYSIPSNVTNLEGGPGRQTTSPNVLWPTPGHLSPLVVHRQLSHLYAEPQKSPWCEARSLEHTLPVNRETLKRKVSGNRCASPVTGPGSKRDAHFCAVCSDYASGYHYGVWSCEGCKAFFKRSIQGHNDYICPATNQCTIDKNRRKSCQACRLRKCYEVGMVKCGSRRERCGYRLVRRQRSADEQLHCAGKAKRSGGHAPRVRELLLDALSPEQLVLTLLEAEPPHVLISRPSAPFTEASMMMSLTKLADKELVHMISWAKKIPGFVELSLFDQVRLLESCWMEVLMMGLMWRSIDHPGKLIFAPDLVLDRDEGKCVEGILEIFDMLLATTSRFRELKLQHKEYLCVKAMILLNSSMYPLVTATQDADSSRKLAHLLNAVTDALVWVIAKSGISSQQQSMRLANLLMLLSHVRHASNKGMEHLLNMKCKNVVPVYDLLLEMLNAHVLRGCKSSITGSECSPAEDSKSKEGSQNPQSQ
# Assay: Cell-based ERβ luminescence (luciferase reporter) agonist assay
# Settings: not given
# Excerpt: as §1
row,SMILES,IC50
1,"CC1C[C@H](C)C2(CC[C@H]3[C@@H]4CCc5cc(O)ccc5[C@H]4CC[C@@]32C)O1 (some centres unmarked) [Compound 13, 17,23-Epoxy-3-hydroxy-19-norchola-1,3,5(10)-triene]",111 ± 26 nM
2,"OC[C@H]1CCC[C@@H](c2ccc(O)cc2)CC1 (racemic) [Compound 18, cis-1-Hydroxymethyl-4-(4′-hydroxyphenyl)-cycloheptane]",5.4 ± 0.3 nM
3,"CCCOC(=O)C1CC[C@H]2[C@@H]3CCc4cc(O)ccc4[C@H]3CC[C@]12C (some centres unmarked) [Compound 4, n-Propyl 3-hydroxyestra-1,3,5(10)-triene-17-carboxylate]",9.8 ± 2 nM
4,"CC[C@H](C)C1=CC[C@H]2[C@@H]3CCc4cc(O)ccc4[C@H]3CC[C@]12C [Compound 7, (20S) 3-Hydroxy-19,24-dinorchola-1,3,5(10),16-tetraene]",88 ± 9 nM
5,"C[C@]12CC[C@@H]3c4ccc(O)cc4CC[C@H]3[C@@H]1CC=C2CO [Compound 2, 3-Hydroxvestra-1,3,5(10),16-tetraene-17-methanol]",6.8 ± 0.2 nM
6,"C[C@@H](CCO)C1=CC[C@H]2[C@@H]3CCc4cc(O)ccc4[C@H]3CC[C@]12C [Compound 11, (20S) 3-Hydroxy-19,24-Dinorchola-1,3,5(10),16-tetraen-23-ol]",108 ± 67 nM

# Same assay, conditions: normalized; read-out: ERβ Agonist normalized
row,EC50,SMILES
1,104 nM,OCCC1CCCC(c2ccc(O)cc2)CC1 (centres unmarked) [ISP-248]
2,89 nM,CCC1CCC(c2ccc(O)cc2)CC1 (centres unmarked) [RKP-231 IF]

# Same assay, conditions: read-out: ERβ Agonist
row,EC50,SMILES
1,30 nM and 33 nM,OCC1CCC[C@@H](c2ccc(O)cc2)CC1 (some centres unmarked) [ISP-163]
2,142 ± 17 nM,OCCC1CCCC(c2ccc(O)cc2)CC1 (centres unmarked) [ISP-248]
3,93 ± 7 nM,CCC1CCC(c2ccc(O)cc2)CC1 (centres unmarked) [RKP-231 IF]
4,731 ± 85 nM,O/N=C1/CCCC(c2ccc(O)cc2)CC1 (centres unmarked) [ISP-166]

# Target: T1, ERα
# Assay: Fluorescence polarization displacement assay (FITC-estradiol tracer)
# Format: binding
# Settings: accurate Kd could not be obtained, estimated
# Description: ([Tr]) was 10 nM. Sample volume was 150 μL. For each experiment the polarization was calibrated with a sample of FITC set at 20 mP. All proper blanks were used, including water for the FITC samples and blank samples containing only 30 nM ERα protein for the remaining data points.
row,Kd,SMILES
1,> 1000 nM,"OC[C@H]1CCC[C@@H](c2ccc(O)cc2)CC1 (racemic) [Compound 18, cis-1-Hydroxymethyl-4-(4′-hydroxyphenyl)-cycloheptane]"

# Same assay, conditions: at concentrations as high as 1 μM
row,SMILES,affinity for ERα (qualitative)
1,"CC1C[C@H](C)C2(CC[C@H]3[C@@H]4CCc5cc(O)ccc5[C@H]4CC[C@@]32C)O1 (some centres unmarked) [Compound 13, 17,23-Epoxy-3-hydroxy-19-norchola-1,3,5(10)-triene]",significant affinity
2,"CC[C@H](C)C1=CC[C@H]2[C@@H]3CCc4cc(O)ccc4[C@H]3CC[C@]12C [Compound 7, (20S) 3-Hydroxy-19,24-dinorchola-1,3,5(10),16-tetraene]",significant affinity
3,"C[C@@H](CCO)C1=CC[C@H]2[C@@H]3CCc4cc(O)ccc4[C@H]3CC[C@]12C [Compound 11, (20S) 3-Hydroxy-19,24-Dinorchola-1,3,5(10),16-tetraen-23-ol]",significant affinity
4,"OC[C@H]1CCC[C@@H](c2ccc(O)cc2)CC1 (relative stereo) [Compound 18, cis-1-Hydroxymethyl-4-(4′-hydroxyphenyl)-cycloheptane]",significant affinity

# Same assay, conditions: fluorescence polarization displacement
row,SMILES,Kd
1,"CC1C[C@H](C)C2(CC[C@H]3[C@@H]4CCc5cc(O)ccc5[C@H]4CC[C@@]32C)O1 (some centres unmarked) [Compound 13, 17,23-Epoxy-3-hydroxy-19-norchola-1,3,5(10)-triene]",160 ± 10 nM
2,"CCCOC(=O)C1CC[C@H]2[C@@H]3CCc4cc(O)ccc4[C@H]3CC[C@]12C (some centres unmarked) [Compound 4, n-Propyl 3-hydroxyestra-1,3,5(10)-triene-17-carboxylate]",320 ± 40 nM
3,"CC[C@H](C)C1=CC[C@H]2[C@@H]3CCc4cc(O)ccc4[C@H]3CC[C@]12C [Compound 7, (20S) 3-Hydroxy-19,24-dinorchola-1,3,5(10),16-tetraene]",160 ± 10 nM
4,"C[C@@H](CCO)C1=CC[C@H]2[C@@H]3CCc4cc(O)ccc4[C@H]3CC[C@]12C [Compound 11, (20S) 3-Hydroxy-19,24-Dinorchola-1,3,5(10),16-tetraen-23-ol]",320 ± 40 nM

# Same assay, conditions: read-out: IC50 (ERα affinity, fluorescence polarization displacement assay)
row,SMILES,IC50
1,"CCCOC(=O)C1CC[C@H]2[C@@H]3CCc4cc(O)ccc4[C@H]3CC[C@]12C (some centres unmarked) [Compound 4, n-Propyl 3-hydroxyestra-1,3,5(10)-triene-17-carboxylate]",160 to 320 nM
2,"CC[C@H](C)C1=CC[C@H]2[C@@H]3CCc4cc(O)ccc4[C@H]3CC[C@]12C [Compound 7, (20S) 3-Hydroxy-19,24-dinorchola-1,3,5(10),16-tetraene]",160 to 320 nM

# Target: T1, ERα
# Assay: Cell-based ERα luminescence antagonist assay (+E2)
# Settings: not given
# Description: ERα and ERβ assay kits for cell-based assays (Indigo Biosciences) allowed for investigation into the functional activity (i.e. agonist and/or antagonist) of the ligands identified to bind based on the initial fluorescence polarization displacement assay. Briefly, the cells contained a luciferase reporter gene that was functionally linked to either the ERα or ERβ-responsive promoter. By quantifying the luciferase expression via luminescence, the change in ER activity could be quantified. 1-2 mM stocks of the ligands were prepared in d6-DMSO and diluted to final concentrations ranging from 3.2 nM to 2 μM, using the Compound Screening Medium provided in the kit. For the agonist assay, the cells were prepared by warming to 37° C., plated, then the chemicals added. […] The cells were then plated, and the chemicals added. All plates were incubated in a cell culture incubator at 37° C. and 5% CO2 for 22 h. Each assay was performed in duplicate. Luminescence was characterized after removal of the incubating media and introduction of the Detection Substrate using a Molecular Devices SpectraMax M5 microplate reader. Data was fitted using GraphPad Prism and fit to the dose-response (four parameter) equation as follows.
row,IC50,SMILES
1,> 10000 nM,OCC1CCC[C@@H](c2ccc(O)cc2)CC1 (some centres unmarked) [ISP-163]
2,> 10000 nM,OCCC1CCCC(c2ccc(O)cc2)CC1 (centres unmarked) [ISP-248]
3,> 10000 nM,OCC1CCC(c2ccc(O)cc2)CC1 (centres unmarked) [ISP-171]
4,> 10000 nM,O/N=C1/CCCC(c2ccc(O)cc2)CC1 (centres unmarked) [ISP-166]

# Same assay, conditions: read-out: ERα Antagonist (+E2); +E2
row,IC50,SMILES
1,> 10000 nM,CCC1CCC(c2ccc(O)cc2)CC1 (centres unmarked) [RKP-231 IF]

# Target: T2, ERβ
# Assay: Cell-based ERβ luminescence antagonist assay (+E2)
# Settings: not given
# Excerpt: as §1
SMILES,IC50,ERβ antagonist activity (qualitative)
"CC1C[C@H](C)C2(CC[C@H]3[C@@H]4CCc5cc(O)ccc5[C@H]4CC[C@@]32C)O1 (some centres unmarked) [Compound 13, 17,23-Epoxy-3-hydroxy-19-norchola-1,3,5(10)-triene]",–,not ERβ antagonists
"CC[C@H](C)C1=CC[C@H]2[C@@H]3CCc4cc(O)ccc4[C@H]3CC[C@]12C [Compound 7, (20S) 3-Hydroxy-19,24-dinorchola-1,3,5(10),16-tetraene]",–,ERβ antagonist activity
"C[C@]12CC[C@@H]3c4ccc(O)cc4CC[C@H]3[C@@H]1CC=C2CO [Compound 2, 3-Hydroxvestra-1,3,5(10),16-tetraene-17-methanol]",–,not ERβ antagonists
"C[C@@H](CCO)C1=CC[C@H]2[C@@H]3CCc4cc(O)ccc4[C@H]3CC[C@]12C [Compound 11, (20S) 3-Hydroxy-19,24-Dinorchola-1,3,5(10),16-tetraen-23-ol]",–,ERβ antagonist activity
"OC[C@H]1CCC[C@@H](c2ccc(O)cc2)CC1 (relative stereo) [Compound 18, cis-1-Hydroxymethyl-4-(4′-hydroxyphenyl)-cycloheptane]",–,ERβ antagonist activity

# Further lines, with some results ahead:
IC50,SMILES,ERβ antagonist activity (qualitative)
> 100000 nM,OCC1CCC[C@@H](c2ccc(O)cc2)CC1 (some centres unmarked) [ISP-163],–
> 10000 nM,OCCC1CCCC(c2ccc(O)cc2)CC1 (centres unmarked) [ISP-248],–
> 10000 nM,O/N=C1/CCCC(c2ccc(O)cc2)CC1 (centres unmarked) [ISP-166],–

# Same assay, conditions: 160 pM E2 added; read-out: ERβ antagonist IC50
row,SMILES,IC50
1,"CC[C@H](C)C1=CC[C@H]2[C@@H]3CCc4cc(O)ccc4[C@H]3CC[C@]12C [Compound 7, (20S) 3-Hydroxy-19,24-dinorchola-1,3,5(10),16-tetraene]",70 ± 15 nM
2,"C[C@@H](CCO)C1=CC[C@H]2[C@@H]3CCc4cc(O)ccc4[C@H]3CC[C@]12C [Compound 11, (20S) 3-Hydroxy-19,24-Dinorchola-1,3,5(10),16-tetraen-23-ol]",275 ± 40 nM

# Same assay, conditions: read-out: ERβ Antagonist (+E2); +E2
row,IC50,SMILES
1,> 10000 nM,CCC1CCC(c2ccc(O)cc2)CC1 (centres unmarked) [RKP-231 IF]

# Same assay, conditions: read-out: ERβ antagonist IC50
row,IC50,SMILES
1,137 ± 100 nM,"OC[C@H]1CCC[C@@H](c2ccc(O)cc2)CC1 (racemic) [Compound 18, cis-1-Hydroxymethyl-4-(4′-hydroxyphenyl)-cycloheptane]"

# Target: T2, ERβ
# Assay: TR-FRET ERβ binding assay
# Settings: TR-FRET tracer displacement
# Description: The binding activity of substituted (4′-hydroxyphenyl)cycloalkane compounds was tested using a TR-FRET ERβ binding assay as illustrated in FIG. 12. […] When the tracer used in the assay is bound, then the ratio is high. When the tracer is displaced, the ratio is low. The following compounds were tested.
row,IC50,SMILES
1,378 ± 97 nM,OC[C@H]1C=CCC(c2ccc(O)cc2)C=C1 (some centres unmarked) [RKP-35c]
2,23.5 ± 8 nM,OCC1CCC[C@@H](c2ccc(O)cc2)CC1 (some centres unmarked) [ISP-163]
3,521 ± 87 nM,OCC=C1CCC(c2ccc(O)cc2)CC1 (centres unmarked) [RKP-228]
4,36.8 ± 9.2 nM,OCCC1CCCC(c2ccc(O)cc2)CC1 (centres unmarked) [ISP-248]
5,15.2 ± 1.5 nM,CCC1CCC(c2ccc(O)cc2)CC1 (centres unmarked) [RKP-231 IF]
